Results published in PubChem BioAssay AID1963846 (Molecular Pharmacology Branch, DTP, NCI, 2024).
pIC50: −log10 of the molar value. “And” between values parts separate entries of the source, which are not always exact repeats. Identical values can stand only once.

System: 454973-116-R2-J3-PDC complex spheroid viability
Experiment: Anticancer human tumor 454973-116-R2-J3-PDC patient-derived pancreatic carcinoma cell line growth inhibition [POLQ]
Conditions: for viability, T/C: stronger effect = lower value
Procedure: Multicellular complex tumor spheroid response to Polymerase (POL) inhibitors (novobiocin, ART-558, RP6685) in combination with a variety of drugs and investigational agents in selected tumor cell lines
The POL inhibitors (novobiocin, ART-558, and RP6685) were evaluated both individually and in combination with standard of care and investigational anticancer small molecules within a complex spheroid model of solid tumors. . Complex spheroids include a stromal component modeled by human endothelial cells (HUVEC) and fibroblasts modeled by human mesenchymal stem cells (MSCs). The concentration ranges selected for each drug and investigational agent were based upon clinically achievable concentrations if the clinical Cmax of the agent was known.
Compounds. The drugs and investigational agents: novobiocin (NSC847541), ART-558 (NSC835418), RP-6685 (NSC848927), peposertib (NSC802822), ceralasertib (NSC780249), elimusertib (NSC800525), camonsertib (NSC841442), AZD-1390 (NSC803789), olaparib (NSC753686), talazoparib (NSC767125), rucaparib (NSC756644), sotorasib (NSC818433), MRTX-1133 (NSC836407), SN-38 (NSC673596), topotecan (NSC609699), epotoside (NSC141540), doxorubicin (NSC123127), gemcitabine (NSC613327), 5-fluorouracil (NSC19893), paclitaxel (NSC125973), vemurafenib (NSC761431), MSA-2 (NSC828583), SN-011 (NSC837082), adavosertib (NSC754352), prexasertib (NSC758257), carboplatin (NSC241240) and oxaliplatin (NSC266046), were obtained from the National Cancer Institute (NCI) Developmental Therapeutics Program Chemical Repository (21). The FDA-approved anticancer drug set is available from the Developmental Therapeutics Program at https://dtp.cancer.gov/organization/dscb/obtaining/. […] The stock solutions were prepared in dimethyl sulfoxide (DMSO, Sigma-Aldrich, St. Louis, MO, cat. D2650), except for the platinum compounds which were prepared in saline (Quality Biological, Gaithersburg, MD, cat. 114-055-101), at 800-fold the tested concentration and stored at -70 degrees C prior to their use. All drugs and investigational agents were tested over a range starting from a high concentration at or near the clinical Cmax and decreasing in half-log increments. If the clinical Cmax for an agent had not been determined, the highest concentration tested was 10 microM, except for SN-38, which was tested at a high concentration of 1 microM.
Cell Culture. All cells were maintained in an incubator at 37 degrees C and 5% CO2 with 95% humidity. The PDC lines were cultured according to standard operating procedures established by the NCI PDMR (https://pdmr.cancer.gov). Table 3 of the manuscript, lists the cell lines along with the number of the three cell types plated to form the mct-spheroids and media for tumor cell growth. After thawing, all PDC lines, except 997537-175-T-J1-PDC and 415267-285-R-J2-PDC, were cultured in Matrigel-coated flasks prepared with a working solution of 1X Ham's F-12 nutrient mix, without supplementation (Thermo Fisher Scientific, cat. 11765054), 100 U/mL penicillin-streptomycin (Thermo Fisher Scientific, cat. 15140122), and 2.5% Matrigel (Corning Inc., Corning, NY, cat. 354248) for the first three passages. The two PDC lines 997537-175-T-J1-PDC and 415267-285-R-J2-PDC were cultured on uncoated flasks. The 857933-349-R-J2-PDC line was cultured in 6C/Colon 1B media containing advanced DMEM/F-12 (Thermo Fisher Scientific, cat. 12634028), 10 mM HEPES (Thermo Fisher Scientific, cat. 15630080), 1X GlutaMAX supplement (Thermo Fisher Scientific, cat. 35050061), 0.1 mg/mL primocin (InvivoGen, San Diego, CA, cat. ant-pm-2), 10% defined fetal bovine serum, heat inactivated (HyClone Laboratories Inc., Logan, UT, cat. SH30070.03HI), 50% L-WRN conditioned media (ATCC, cat. CRL-3276), 1.25 mM N-Acetyl-L-cysteine (Sigma-Aldrich, cat. A9165), 10 mM nicotinamide (Sigma-Aldrich, cat. N0636), 1X B-27 supplement (Thermo Fisher Scientific, cat. 17504044), 1X N-2 supplement (Thermo Fisher Scientific, cat. […]
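Further: spheroids exposed to drugs for seven days before measurement.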
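Wherever viability, T/C is given: percent viability relative to DMSO vehicle control wells taken as 100%.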

## CC[C@@]1(O)C(=O)OCc2c1cc1n(c2=O)Cc2cc3c(CN(C)C)c(O)ccc3nc2-1
Compound 0.000316 µM
  viability, T/C: 120% and 108% and 112%
Compound 0.001 µM
  viability, T/C: 101% and 93.5% and 105%
Compound 0.00316 µM
  viability, T/C: 97% and 95.4% and 103%
Compound 0.01 µM
  viability, T/C: 81.7% and 76.8% and 84.1%
Compound 0.0316 µM
  viability, T/C: 20% and 13.8% and 24.2%
Compound 0.1 µM
  viability, T/C: 17.1% and 10.5% and 14.8%
Curve of compound
  pIC50: 7.74 and 7.79 and 7.71

## CC1COCCN1c1cc(C2(O)CC3CCC(C2)O3)c2cnn(-c3ccn[nH]3)c2n1 (stereo not given) + Cc1cccc(N(C)C(=O)C2C(O)CCN2c2nc(C)cc(C(F)(F)F)c2C#N)c1
Curve of first compound, second compound 0.0316 µM
  pIC50: 6.72
Curve of first compound, second compound 0.1 µM
  pIC50: 6.67
Curve of first compound, second compound 0.316 µM
  pIC50: 6.70
Curve of first compound, second compound 1 µM
  pIC50: 6.71
Curve of first compound, second compound 3.16 µM
  pIC50: 6.74
Curve of first compound, second compound 10 µM
  pIC50: 6.79
Second compound 0.0316 µM, first compound 0.0316 µM
  viability, T/C: 91.2%
Second compound 0.0316 µM, first compound 0.1 µM
  viability, T/C: 70%
Second compound 0.0316 µM, first compound 0.316 µM
  viability, T/C: 33.4%
Second compound 0.0316 µM, first compound 1 µM
  viability, T/C: 22.8%
Second compound 0.0316 µM, first compound 3.16 µM
  viability, T/C: 20.6%
Second compound 0.0316 µM, first compound 10 µM
  viability, T/C: 13.2%
Second compound 0.1 µM, first compound 0.0316 µM
  viability, T/C: 90.6%
Second compound 0.1 µM, first compound 0.1 µM
  viability, T/C: 80.9%
Second compound 0.1 µM, first compound 0.316 µM
  viability, T/C: 33.5%
Second compound 0.1 µM, first compound 1 µM
  viability, T/C: 20.6%
Second compound 0.1 µM, first compound 3.16 µM
  viability, T/C: 21.5%
Second compound 0.1 µM, first compound 10 µM
  viability, T/C: 15.5%
Second compound 0.316 µM, first compound 0.0316 µM
  viability, T/C: 93.9%
Second compound 0.316 µM, first compound 0.1 µM
  viability, T/C: 73.1%
Second compound 0.316 µM, first compound 0.316 µM
  viability, T/C: 34.3%
Second compound 0.316 µM, first compound 1 µM
  viability, T/C: 21.2%
Second compound 0.316 µM, first compound 3.16 µM
  viability, T/C: 22.8%
Second compound 0.316 µM, first compound 10 µM
  viability, T/C: 15.8%
Second compound 1 µM, first compound 0.0316 µM
  viability, T/C: 102%
Second compound 1 µM, first compound 0.1 µM
  viability, T/C: 73%
Second compound 1 µM, first compound 0.316 µM
  viability, T/C: 33%
Second compound 1 µM, first compound 1 µM
  viability, T/C: 21.9%
Second compound 1 µM, first compound 3.16 µM
  viability, T/C: 20.1%
Second compound 1 µM, first compound 10 µM
  viability, T/C: 14.5%
Second compound 3.16 µM, first compound 0.0316 µM
  viability, T/C: 98.5%
Second compound 3.16 µM, first compound 0.1 µM
  viability, T/C: 67.6%
Second compound 3.16 µM, first compound 0.316 µM
  viability, T/C: 34.7%
Second compound 3.16 µM, first compound 1 µM
  viability, T/C: 16.8%
Second compound 3.16 µM, first compound 3.16 µM
  viability, T/C: 26%
Second compound 3.16 µM, first compound 10 µM
  viability, T/C: 16.2%
Second compound 10 µM, first compound 0.0316 µM
  viability, T/C: 105%
Second compound 10 µM, first compound 0.1 µM
  viability, T/C: 60.5%
Second compound 10 µM, first compound 0.316 µM
  viability, T/C: 36.7%
Second compound 10 µM, first compound 1 µM
  viability, T/C: 21.4%
Second compound 10 µM, first compound 3.16 µM
  viability, T/C: 28.3%
Second compound 10 µM, first compound 10 µM
  viability, T/C: 17.2%

## CC1COCCN1c1cc(C2(O)CC3CCC(C2)O3)c2cnn(-c3ccn[nH]3)c2n1 (stereo not given)
Compound 0.0316 µM
  viability, T/C: 100% and 99.2% and 87.4%
Compound 0.1 µM
  viability, T/C: 71.6% and 69.7% and 51.4%
Compound 0.316 µM
  viability, T/C: 29.2% and 34.4% and 21.1%
Compound 1 µM
  viability, T/C: 24.1% and 25.3% and 11.3%
Compound 3.16 µM
  viability, T/C: 23.8% and 24.9% and 15.1%
Compound 10 µM
  viability, T/C: 14.6% and 14.2% and 9.62%
Curve of compound
  pIC50: 6.74 and 6.71 and 6.97

## CCc1cc2c(N3CCc4c(cc(Cn5ccnc5)cc4-c4cn(C)nc4C(F)(F)F)C3=O)ccnc2c(OC)n1
Compound 0.0316 µM
  viability, T/C: 109% and 100% and 101%
Compound 0.1 µM
  viability, T/C: 95.6% and 93% and 84.3%
Compound 0.316 µM
  viability, T/C: 98.7% and 82.7% and 86.3%
Compound 1 µM
  viability, T/C: 87.5% and 83.7% and 77.2%
Compound 3.16 µM
  viability, T/C: 89.3% and 71.8% and 72.8%
Compound 10 µM
  viability, T/C: 68% and 70.2% and 53.9%
Curve of compound
  pIC50: < 5.00

## COc1cc2cc(C(=O)CCC(=O)O)sc2cc1OC
Compound 0.0316 µM
  viability, T/C: 101% and 105% (2×)
Compound 0.1 µM
  viability, T/C: 101% (2×) and 99.3%
Compound 0.316 µM
  viability, T/C: 100% and 105% and 108%
Compound 1 µM
  viability, T/C: 96.9% and 103% and 106%
Compound 3.16 µM
  viability, T/C: 94.2% and 105% and 114%
Compound 10 µM
  viability, T/C: 96.2% and 95.3% and 93.4%
Curve of compound
  pIC50: < 5.00
